Test results published in EP4389751A1, “HETEROCYCLIC COMPOUNDS AND USES THEREOF” (Kumquat Biosciences Inc., priority 2021, dated 2024).
pIC50: −log10 of the molar value. Read-outs that look alike come from different tables or passages of the source.

How the values were obtained:
K-Ras G12S = molecular target: T1, K-Ras G12S (Homo sapiens, UniProt P01116, G12S); assay: HTRF assay of the K-Ras / SOS1 interaction; type: biochemical; settings: IC50 (against K-Ras G12D) to IC50 (against K-Ras G12S)
T1 construct: made in house; host or cells: E. coli (e.g., BL21 (DE3))
Procedure, shortened: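 GST-K-Ras G12S with anti-GST-Eu donor and His-hSOS1 with anti-6His-XL665 acceptor in ~5 mM HEPES pH 7.4, ~150 mM NaCl, 1 mM DTT, 0.05% BSA, 0.0025% Igepal. Read after ~10 min or longer; IC50 from 665/620 nm ratio, duplicates at 10 µM down to 0.01 µM.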

[1] = molecular target: T2, KRAS protein (His-tagged GDP-loaded G12S 1-169) (Homo sapiens, UniProt P01116, G12S); assay: Covalent modification of KRAS protein, intact-protein LC-MS; type: binding; settings: 24hrs at room temperature, KRAS protein ~2 µM
T2 construct: His-tagged GDP-loaded G12S 1-169
Procedure, shortened: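 His-tagged GDP-loaded KRAS 1-169 (~2 µM) incubated with compound 24 h at room temperature, then quenched with formic acid. Intact-protein LC-ESI-MS on C4 column; deconvoluted peak intensities of unmodified and adducted protein give percent covalent modification.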

GP2D cells = assay: Cell proliferation assay (CellTiter-Glo), K-Ras G12D cells; type: cell-based; settings: read-out: Inhibition of GP2D Cells (IC50)
Procedure, shortened: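 GP2D (K-Ras G12D) cells seeded in DMEM with 2 mM glutamine and 10% FBS, then dosed next day with a dilution series (e.g., 9-point 3-fold). Viability read by CellTiter-Glo luminescence after about 5 days. IC50 from four-parameter fit.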

| Structure (SMILES) | Ratio of IC50 KRAS G12D vs. IC50 KRAS G12S (K-Ras G12S) | % G12S Modification at 24 hr. [1] | pIC50 (GP2D cells; GP2D cells (K-Ras G12D)) | pIC50 (GP2D cells; GP2d) |
| --- | --- | --- | --- | --- |
| N#Cc1cnn(C(=O)N2CCN(c3nc(OC[C@@]45CCCN4C[C@H](F)C5)nc4c(F)c(-c5ccc(F)c6sc(N)nc56)c(Cl)cc34)CC(F)(F)C2)c1 [Compound A126, 1-(4-(7-(2-amino-7-fluorobenzo[d]thiazol-4-yl)-6-chloro-8-fluoro-2-(((2R,7aS)-2-fluorotetrahydro-1H-pyrrolizin-7a(5H)-yl)methoxy)quinazolin-4-yl)-6,6-difluoro-1,4-diazepane-1-carbonyl)-1Hpyrazole-4-carbonitrile] | A (A: indicates that the ratio of IC50 against KrasG12D vs. IC50 against KrasG12S is 1-fold or greater) | +++ (+++ indicates greater than 20% labelling) | 5.00 to 6.00 | – |
| N#Cc1c(N)sc2c(F)ccc(-c3c(Cl)cc4c(N5CC6OCCN(C(=O)n7cncn7)C6C5)nc(OC[C@@]56CCCN5C[C@H](F)C6)nc4c3F)c12 (stereo partly drawn) [Compound A227, 4-(4-(4-(1H-1,2,4-triazole-1-carbonyl)hexahydropyrrolo[3,4-b][1,4]oxazin-6(2H)-yl)-6-chloro-8-fluoro-2-(((2R,7aS)-2-fluorotetrahydro-1H-pyrrolizin-7a(5H)-yl)methoxy)quinazolin-7-yl)-2-amino-7-fluorobenzo[b]thiophene-3-carbonitrile] | A (A: indicates that the ratio of IC50 against KrasG12D vs. IC50 against KrasG12S is 1-fold or greater) | +++ (+++ indicates greater than 20% labelling) | 5.00 to 6.00 | – |
| N#Cc1c(N)sc2c(F)ccc(-c3c(Cl)cc4c(N5CC6(CN(C(=O)n7cncn7)CCO6)C5)nc(OC[C@@]56CCCN5C[C@H](F)C6)nc4c3F)c12 [Compound A140, 4-(4-(8-(1H-1,2,4-triazole-1-carbonyl)-5-oxa-2,8-diazaspiro[3.5]nonan-2-yl)-6-chloro-8-fluoro-2-(((2R,7aS)-2-fluorotetrahydro-1H-pyrrolizin-7a(5H)-yl)methoxy)quinazolin-7-yl)-2-amino-7-fluorobenzo[b]thiophene-3-carbonitrile] | A (A: indicates that the ratio of IC50 against KrasG12D vs. IC50 against KrasG12S is 1-fold or greater) | +++ (+++ indicates greater than 20% labelling) | 5.00 to 6.00 | – |
| N#Cc1c(N)sc2c(F)ccc(-c3ncc4c(N5CC6CCC(C5)N6C(=O)n5ccnc5C#N)nc(OC[C@@]56CCCN5C[C@H](F)C6)nc4c3F)c12 [Compound A165, 1-(3-(7-(2-amino-3-cyano-7-fluorobenzo[b]thiophen-4-yl)-8-fluoro-2-(((2R,7aS)-2-fluorotetrahydro-1H-pyrrolizin-7a(5H)-yl)methoxy)pyrido[4,3-d]pyrimidin-4-yl)-3,8-diazabicyclo[3.2. 1]octane-8-carbonyl)-1H-imidazole-2-carbonitrile] | A (A: indicates that the ratio of IC50 against KrasG12D vs. IC50 against KrasG12S is 1-fold or greater) | ++ (++ indicates between about 1%- 20% labelling) | 5.00 to 6.00 | – |
| Nc1nc2c(-c3c(Cl)cc4c(N5CCOC6(CN(C(=O)n7cncn7)C6)C5)nc(OC[C@@]56CCCN5C[C@H](F)C6)nc4c3F)ccc(F)c2s1 [Compound A273, (8-(7-(2-amino-7-fluorobenzo[d]thiazol-4-yl)-6-chloro-8-fluoro-2-(((2R,7aS)-2-fluorotetrahydro-1H-pyrrolizin-7a(5H)-yl)methoxy)quinazolin-4-yl)-5-oxa-2,8-diazaspiro[3.5]nonan-2-yl)(1H-1,2,4-triazol-1-yl)methanone] | A (A: indicates that the ratio of IC50 against KrasG12D vs. IC50 against KrasG12S is 1-fold or greater) | +++ (+++ indicates greater than 20% labelling) | 5.00 to 6.00 | – |
| Nc1nc2c(-c3c(Cl)cc4c(N[C@H]5C[C@H]6CC[C@@H](C5)N6C(=O)n5cncn5)nc(OC[C@@]56CCCN5C[C@H](F)C6)nc4c3F)ccc(F)c2s1 [Compound A207, ((1R,3r,5S)-3-((7-(2-amino-7-fluorobenzo[d]thiazol-4-yl)-6-chloro-8-fluoro-2-(((2R,7aS)-2-fluorotetrahydro-1H-pyrrolizin-7a(5H)-yl)methoxy)quinazolin-4-yl)amino)-8-azabicyclo[3.2.1]octan-8-yl)(1H-1,2,4-triazol-1-yl)methanone] | A (A: indicates that the ratio of IC50 against KrasG12D vs. IC50 against KrasG12S is 1-fold or greater) | +++ (+++ indicates greater than 20% labelling) | – | 5.00 to 6.00 |
| Nc1nc2c(-c3c(Cl)cc4c(N5CCOC6(CCN(C(=O)n7cncn7)CC6)C5)nc(OCC56CCCN5C[C@H](F)C6)nc4c3F)ccc(F)c2s1 (stereo partly drawn) [Compound A243, (4-(7-(2-amino-7-fluorobenzo[d]thiazol-4-yl)-6-chloro-8-fluoro-2-(((2R)-2-fluorotetrahydro-1H-pyrrolizin-7a(5H)-yl)methoxy)quinazolin-4-yl)-1-oxa-4,9-diazaspiro [5.5]undecan-9-yl)(1H-1,2,4-triazol-1-yl)methanone] | A (A: indicates that the ratio of IC50 against KrasG12D vs. IC50 against KrasG12S is 1-fold or greater) | +++ (+++ indicates greater than 20% labelling) | 5.00 to 6.00 | – |
| Nc1nc2c(-c3c(Cl)cc4c(N5CC6(CN(C(=O)n7cncn7)CCO6)C5)nc(OC[C@@]56CCCN5C[C@H](F)C6)nc4c3F)ccc(F)c2s1 [Compound A268, (2-(7-(2-amino-7-fluorobenzo[d]thiazol-4-yl)-6-chloro-8-fluoro-2-(((2R,7aS)-2-fluorotetrahydro-1H-pyrrolizin-7a(5H)-yl)methoxy)quinazolin-4-yl)-5-oxa-2,8-diazaspiro[3.5]nonan-8-yl)(1H-1,2,4-triazol-1-yl)methanone] | A (A: indicates that the ratio of IC50 against KrasG12D vs. IC50 against KrasG12S is 1-fold or greater) | +++ (+++ indicates greater than 20% labelling) | 5.00 to 6.00 | – |
| N#Cc1c(N)sc2c(F)ccc(-c3c(Cl)cc4c(N5CCN(C(=O)n6cncn6)CC(F)(F)C5)nc(OC[C@@]56CCCN5C[C@H](F)C6)nc4c3F)c12 [Compound A280, 2-amino-4-(6-chloro-4-(6,6-difluoro-4-(1H-1,2,4-triazole-1-carbonyl)-1,4-diazepan-1-yl)-8-fluoro-2-(((2R,7aS)-2-fluorotetrahydro-1H-pyrrolizin-7a(5H)-yl)methoxy)quinazolin-7-yl)-7-fluorobenzo[b]thiophene-3-carbonitrile] | A (A: indicates that the ratio of IC50 against KrasG12D vs. IC50 against KrasG12S is 1-fold or greater) | +++ (+++ indicates greater than 20% labelling) | ≥ 6.00 | – |
| Nc1nc2c(-c3c(Cl)cc4c(N5CC6(CCCN(C(=O)n7cncn7)C6)C5)nc(OC[C@@]56CCCN5C[C@H](F)C6)nc4c3F)ccc(F)c2s1 [Compound A230, (2-(7-(2-amino-7-fluorobenzo[d]thiazol-4-yl)-6-chloro-8-fluoro-2-(((2R,7aS)-2-fluorotetrahydro-1H-pyrrolizin-7a(5H)-yl)methoxy)quinazolin-4-yl)-2,6-diazaspiro[3.5]nonan-6-yl)(1H-1,2,4-triazol-1-yl)methanone] | A (A: indicates that the ratio of IC50 against KrasG12D vs. IC50 against KrasG12S is 1-fold or greater) | +++ (+++ indicates greater than 20% labelling) | 5.00 to 6.00 | – |
| Nc1nc2c(-c3c(Cl)cc4c(N5CCC6(CN(C(=O)n7cncn7)C6)C5)nc(OC[C@@]56CCCN5C[C@H](F)C6)nc4c3F)ccc(F)c2s1 [Compound A201, (6-(7-(2-amino-7-fluorobenzo[d]thiazol-4-yl)-6-chloro-8-fluoro-2-(((2R,7aS)-2-fluorotetrahydro-1H-pyrrolizin-7a(5H)-yl)methoxy)quinazolm-4-yl)-2,6-diazaspiro[3.4]octan-2-yl)(1H-1,2,4-triazol-1-yl)methanone] | A (A: indicates that the ratio of IC50 against KrasG12D vs. IC50 against KrasG12S is 1-fold or greater) | +++ (+++ indicates greater than 20% labelling) | 5.00 to 6.00 | – |
| Nc1nc2c(-c3c(Cl)cc4c(N5CCCC6(CCN(C(=O)n7cncn7)C6)C5)nc(OC[C@@]56CCCN5C[C@H](F)C6)nc4c3F)ccc(F)c2s1 (stereo partly drawn) [Compound A104, (7-(7-(2-amino-7-fluorobenzo[d]thiazol-4-yl)-6-chloro-8-fluoro-2-(((2R,7aS)-2-fluorotetrahydro-1H-pyrrolizin-7a(5H)-yl)methoxy)quinazolin-4-yl)-2,7-diazaspiro[4.5]decan-2-yl)(1H-1,2,4-triazol-1-yl)methanone] | A (A: indicates that the ratio of IC50 against KrasG12D vs. IC50 against KrasG12S is 1-fold or greater) | ++ (++ indicates between about 1%- 20% labelling) | 5.00 to 6.00 | – |
